Results reported in patent EP3408309B1 (priority 2016, dated 2017).

How the values were obtained:
[1] = test system: fluorescently labeled X31; assay: Microscale thermophoresis binding to whole virus particles; set-up: species or system influenza strain A/Aichi/2/68 H3N2; conditions: apparent dissociation constant, one site binding fit; read-out: Kdapp Particle
Text: The examined IPGSAs show one binding step. Binding constants are described as apparent dissociation constants (Kdapp) derived from a one site binding fit of each binding step. Error bars indicate the standard error of the mean (n≥3).

[2] = test system: influenza A virus (X-31, H3N2); assay: Hemagglutination inhibition (HAI) assay; assay type: cell-based
X31 = assay: Infection inhibition experiment with X31 in BALB/c mice; assay type: in vivo; conditions: X31 pretreated with inhibitor, intranasal application; loss in body weight over 11 days
Procedure: Figure 7A and 7B show the results of an infection inhibition experiment with X31 in BALB/c mice. X31 was pretreated with inhibitor at the indicated concentrations, followed by intranasal application of the mixture to sedated mice.
In the experiments, the results of which are depicted in Figure 7A, the infection-related loss in body weight was daily controlled for 11 days. IPGSA 3 at 5 mM and 1 mM sialic acid concentrations was compared to infected/untreated, uninfected/untreated or infected/control treated (linPGOH 1) cases. The effect of a cytokine storm related loss in body weight was controled by using UV inactivated X31, which was not infectious, but still able to hemagglutinate as the untreated virus. Error bars indicate the standard error of the mean (n≥5).
Error bars indicate the standard error of the mean (n≥5).

Influenza neuraminidase = conditions: competitive inhibitors, background statement; cited from earlier work

**Q.** Which Kd [1] does the source give for CC(=O)N[C@H]1[C@H]([C@H](O)[C@H](O)CO)O[C@@](OC[C@H]2O[C@@H](O[C@H]3[C@H](O)[C@@H](O)C(O)O[C@@H]3CO)[C@H](O)[C@@H](O)[C@H]2O)(C(=O)O)C[C@@H]1O (stereo partly drawn) [α-2,6-sialyllactose] here?
**A.** 2.5 mM

**Q.** And the “Enhancement factor (β)” value ([2]; inhibition potency compared to monomeric α-2,6-sialyllactose)?
**A.** 1

**Q.** What about the Ki ([2]; sialic acid concentration, 4 HAU X31, lowest concentration for 100% inhibition, * = maximum tested concentration, read-out: Ki(HAI) SA) of the same compound?
**A.** 48.1 ± 1.41 mM

**Q.** With CCOC(=O)C1=C[C@@H](OC(CC)CC)[C@H](NC(C)=O)[C@@H](N)C1 [Tamiflu, Oseltamivir] as the compound, how does the “infection inhibition in vivo” value (X31) read?
**A.** not able to cause potent infection inhibition

**Q.** What about the “IC50 values, enzyme inhibition” value (Influenza neuraminidase) of the same compound?
**A.** low

**Q.** For CC(=O)N[C@H]1[C@H]([C@H](O)[C@H](O)CO)OC(C(=O)O)=C[C@@H]1N=C(N)N [Relenza, Zanamivir], which “IC50 values, enzyme inhibition” value (Influenza neuraminidase) is on record?
**A.** low
